The values that follow come from patent US10364240B2, “Aryl sulfonamides” (ChemoCentryx, Inc., priority 2002, dated 2019).

For the first experiment, the target named is T1, CCR9 (Homo sapiens, UniProt P51686).
T1 construct: CCR9-expressing cells (such as a T cell line MOLT-4 cells)
T1 sequence (P51686 1-369): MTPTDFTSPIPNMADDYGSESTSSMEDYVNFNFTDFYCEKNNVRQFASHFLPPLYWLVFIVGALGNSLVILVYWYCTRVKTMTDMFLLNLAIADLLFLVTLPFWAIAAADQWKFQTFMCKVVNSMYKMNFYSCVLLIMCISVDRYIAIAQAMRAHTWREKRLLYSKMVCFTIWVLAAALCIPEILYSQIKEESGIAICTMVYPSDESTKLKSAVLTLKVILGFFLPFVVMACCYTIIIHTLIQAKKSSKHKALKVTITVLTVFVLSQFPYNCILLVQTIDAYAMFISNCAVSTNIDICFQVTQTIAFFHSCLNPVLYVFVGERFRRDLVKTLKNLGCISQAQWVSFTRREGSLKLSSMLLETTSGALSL
Description: chemotaxis (conventional migration) assay and/or calcium mobilization (calcium flux) assay. The class given is cell-based. The settings on record: either or both of the chemotaxis assay and calcium mobilization assays; MOLT-4 cells, TECK. How it is done: MOLT-4 cells were obtained from the American Type Culture Collection (Manassas, Va.) and cultured in RPMI tissue culture medium supplemented with 10% fetal calf serum (FCS) in a humidified 5% CO2 incubator at 37° C. Recombinant human chemokine protein TECK was obtained from R&D Systems (Minneapolis, Minn.). ChemoTX® chemotaxis microchambers were purchased from Neuro Probe (Gaithersburg, Md.). CyQUANT® cell proliferation kits were purchased from Molecular Probes (Eugene, Oreg.). Calcium indicator dye Fluo-4 AM was purchased from Molecular Devices (Mountain View, Calif.).
Conventional migration assay was used to determine the efficacy of potential receptor antagonists in blocking migration mediated through CCR9. This assay was routinely performed using the ChemoTX® microchamber system with a 5-μm pore-sized polycarbonate membrane. To begin such an assay, MOLT-4 cells were harvested by centrifugation of cell suspension at 1000 PRM on a GS-6R Beckman centrifuge. The cell pellet was resuspended in chemotaxis buffer (HBSS with 0.1% BSA) at 5×10^6 cells/mL. Test compounds at desired concentrations were prepared from 10 mM stock solutions by serial dilutions in chemotaxis buffer. An equal volume of cells and compounds were mixed and incubated at room temperature for 15 minutes. Afterwards, 20 μL of the mixture was transferred onto the porus membrane of a migration microchamber, with 29 μL of 50 nM chemokine TECK protein placed at the lower chamber. Following a 150-minute incubation at 37° C., during which cells migrated against the chemokine gradient, the assay was terminated by removing the cell drops from atop the filter. To quantify cells migrated across the membrane, 5 μL of 7× CyQUANT® solution was added to each well in the lower chamber, and the fluorescence signal measured on a Spectrafluor Plus fluorescence plate reader (TECAN, Durham, N.C.). The degree of inhibition was determined by comparing migration signals betweeen compound-treated and untreated cells. IC50 calculation was further performed by non-linear squares regression analysis using Graphpad Prism (Graphpad Software, San Diego, Calif.).
Calcium flux assay measures an increase in intracellular calcium following ligand-induced receptor activation. In the screen of CCR9 antagonists, it was used as a secondary assay carried out on a FLIPR® machine (Molecular Devices, Mountain View, Calif.). To begin an assay, MOLT-4 cells were harvested by centrifugation of cell suspension, and resuspended to 1.5×10^6 cells/mL in HBSS (with 1% fetal calf serum). Cells were then labeled with a calcium indicator dye Fluo-4 AM for 45 minutes at 37° C. with gentle shaking. Following incubation, cells were pelletted, washed once with HBSS and resuspended in the same buffer at a density of 1.6×10^6 cells/mL. One hundred microliters of labeled cells were mixed with 10 μL of test compound at the appropriate concentrations on an assay plate. […] The degree of inhibition was determined by comparing calcium signals between compound-treated and untreated cells. IC50 calculations were further performed by non-linear squares regression analysis using Graphpad Prism (Graphpad Software, San Diego, Calif.).
In the case of `CC1COC(C)(c2ccc(S(=O)(=O)Nc3ccc(Cl)cc3C(=O)c3ccncc3)cc2)O1` (stereo not drawn), the half-maximal inhibitory concentration (IC50) is < 1000 nM.
With `Cc1ccc(C(=O)c2cc(Cl)ccc2NS(=O)(=O)c2ccc(C3C[C@@H](C)O[C@@H](C)C3)cc2)cn1` (stereo partly drawn), the IC50 was < 1000 nM.
On to `O=C(c1cccnc1)c1cc(Cl)ccc1NS(=O)(=O)c1ccc(-c2nccs2)cc1`, for which the half-inhibitory concentration (IC50) is > 1000 nM.
Still for that read-out and setting: then `Cc1cc(C(=O)c2cc(Cl)ccc2NS(=O)(=O)c2ccc(-c3ncco3)cc2)ccn1`, with < 1000 nM; and `COc1c(Cl)ccc(NS(=O)(=O)c2ccc(C(C)(C)C)cc2)c1C(=O)c1ccncc1` [drawing 475], with < 1000 nM; and `CC(C)(c1ccc(S(=O)(=O)Nc2ccc(Cl)cc2C(=O)c2ccccn2)cc1)c1ncco1`, with < 1000 nM.
On to `CCc1ccc(S(=O)(=O)Nc2ccc(Br)cc2C(=O)c2ccncc2)cc1`, for which the IC50 is < 1000 nM.
On the same count and under the same terms, then `Cc1c(C(=O)c2cc(Cl)ccc2NS(=O)(=O)c2ccc(OC(F)(F)F)cc2)ccc[n+]1[O-]`, with < 1000 nM; and `COc1c(Cl)ccc(NS(=O)(=O)c2ccc(C(C)(C)C)cc2)c1C(=O)c1ccncc1` [drawing 520], with > 1000 nM; and `COc1cc(C(=O)c2cc(Cl)ccc2NS(=O)(=O)c2ccc(C(C)(C)C)cc2)ccn1`, with < 1000 nM.
The same measure, in the same setting: the result for `CC(=O)OCC(C)(C)c1ccc(S(=O)(=O)Nc2ccc(Cl)cc2C(=O)c2ccncc2)cc1` reads < 1000 nM; that for `Cc1ccc(C(=O)c2cc(Cl)ccc2NS(=O)(=O)c2ccc(OC(F)(F)F)cc2)c[n+]1[O-]`, < 1000 nM; that for `CSc1cc(C(=O)c2cc(Cl)ccc2NS(=O)(=O)c2ccc(C(C)(C)C)cc2)ccn1`, < 1000 nM.
Same read-out and setting: then `O=C(c1ccncc1)c1cc(Cl)ccc1NS(=O)(=O)c1ccc2c(c1)CNCC2`, with < 1000 nM.
For `C[C@H]1OC(C)(c2ccc(S(=O)(=O)Nc3ccc(Cl)cc3C(=O)c3ccncc3)cc2)O[C@@H]1C`, the IC50 was > 1000 nM.
For the compound `CC(C)(C)c1ccc(S(=O)(=O)Nc2ccc(Cl)cc2C(=O)c2ncccn2)cc1`, the IC50 is < 1000 nM.
As for `COc1ccc(S(=O)(=O)Nc2ccc(Cl)cc2C(=O)c2ccccn2)cc1`, the IC50 was > 1000 nM.
On the same count and under the same terms, then `C[C@@H]1CC(c2ccc(S(=O)(=O)Nc3ccc(Cl)cc3C(=O)c3cccnc3)cc2)C[C@H](C)O1` (stereo partly drawn), with < 1000 nM; and `O=C(c1cc[n+]([O-])cc1)c1cc(Cl)ccc1NS(=O)(=O)c1ccc(-c2cnco2)cc1`, with < 1000 nM.
As to `O=C(c1cccnc1)c1cc(Cl)ccc1NS(=O)(=O)c1ccc(-c2cocn2)cc1`, the IC50 is < 1000 nM.
On the same count and under the same terms, the result for `CS(=O)(=O)c1ccc(S(=O)(=O)Nc2ccc(Cl)cc2C(=O)c2cccnc2)cc1` reads > 1000 nM; that for `Cc1ccc(C(=O)c2cc(Cl)ccc2NS(=O)(=O)c2ccc(S(C)(=O)=O)cc2)cn1`, < 1000 nM; that for `Cc1cc(C(=O)c2cc(Cl)ccc2NS(=O)(=O)c2ccc(S(C)(=O)=O)cc2)ccn1`, > 1000 nM.
Still for that read-out and setting: then `Cc1ccc(S(=O)(=O)Nc2ccc(Cl)cc2C(=O)c2ccncc2)cc1`, with < 1000 nM; and `C[C@@H]1CN(c2ccc(S(=O)(=O)Nc3ccc(Cl)cc3C(=O)c3cccnc3)cc2F)C[C@H](C)O1`, with < 1000 nM.
As for `CC(C)(c1ccc(S(=O)(=O)Nc2cc(F)c(F)cc2C(=O)c2cccnc2)cc1)c1ncco1`, the IC50 was < 1000 nM.
For the compound `COC(=O)CCc1ccc(S(=O)(=O)Nc2ccc(Cl)cc2C(=O)c2ccnc(C)c2)cc1`, the IC50 was > 1000 nM.
For `CC(C)(C)c1ccc(S(=O)(=O)Nc2ccc(Cl)cc2C(=O)c2cnccn2)cc1`, the IC50 is < 1000 nM.
With `CC(C)(CO)c1ccc(S(=O)(=O)Nc2ccc(Cl)cc2C(=O)c2cc[n+]([O-])cc2)cc1`, the half-maximal inhibitory concentration (IC50) is < 1000 nM.
On to `CC1(c2ccc(S(=O)(=O)Nc3ccc(Cl)cc3C(=O)c3cc[nH]n3)cc2)CCOCC1`, for which the 50% inhibitory concentration (IC50) is < 1000 nM.
`CC(C)(C)c1ccc(S(=O)(=O)Nc2ccc(Cl)cc2C(=O)c2cccc[n+]2[O-])cc1`: the IC50 is < 1000 nM.
Still for that read-out and setting: the result for `O=C(c1ccncc1)c1cc(Cl)ccc1NS(=O)(=O)c1ccc(Br)cc1` reads < 1000 nM; that for `CC(C)(C)c1ccc(S(=O)(=O)Nc2c(Cl)cccc2C(=O)c2ccncc2)cc1`, < 1000 nM.
Same read-out and setting: then `O=C(c1ncccn1)c1cc(Cl)ccc1NS(=O)(=O)c1ccc(-c2cnco2)cc1`, with < 1000 nM; and `COC(=O)CCc1ccc(S(=O)(=O)Nc2ccc(Cl)cc2C(=O)c2cccnc2C)cc1`, with < 1000 nM; and `COC(=O)CCc1ccc(S(=O)(=O)Nc2ccc(Cl)cc2C(=O)c2ccc(C)nc2)cc1`, with < 1000 nM.
With `Cc1ccc(C(=O)c2cc(Cl)ccc2NS(=O)(=O)c2ccc(OC(C)C)cc2)c[n+]1[O-]`, the half-maximal inhibitory concentration (IC50) was < 1000 nM.
The same measure, in the same setting: the result for `O=C(c1cccnc1)c1cc(Cl)ccc1NS(=O)(=O)c1ccc(-c2cnco2)cc1` reads < 1000 nM; that for `Cc1nc(C)c(-c2ccc(S(=O)(=O)Nc3ccc(Cl)cc3C(=O)c3ccncc3)cc2)o1`, < 1000 nM.
Turning to `Cc1c(C(=O)c2cc(Cl)ccc2NS(=O)(=O)c2ccc(OC(C)C)cc2)ccc[n+]1[O-]`, the IC50 is < 1000 nM.
On the same count and under the same terms, the result for `O=C(c1ccncc1)c1cc(Br)ccc1NS(=O)(=O)c1ccc(OC(F)(F)F)cc1` reads < 1000 nM; that for `CC(C)(C)c1ccc(S(=O)(=O)Nc2ccc(Cl)cc2C(=O)c2ccc(S(C)(=O)=O)nc2)cc1`, < 1000 nM; that for `CS(=O)(=O)c1ccc(S(=O)(=O)Nc2ccc(Br)cc2C(=O)c2ccncc2)cc1`, < 1000 nM.

For a further experiment, the system named is MDR1a-knockout mice. Description: MDR1a-knockout mice colitis model, prophylactic administration. In kind it is in vivo. The settings on record: female mice, 50 mg/kg twice a day subcutaneous, 14 weeks from age 10 weeks. As for the experimental part:
The MDR1a-knockout mice, which lack the P-glycoprotein gene, spontaneously develop colitis under specific pathogen-free condition. The pathology in these animals has been characterized as Th1-type T cell-mediated inflammation similar to ulcerative colitis in humans. Disease normally begins to develop at around 8-10 weeks after birth. However the ages at which disease emerges and the ultimate penetrance level often vary considerably among different animal facilities.
[drawing 328] was evaluated by prophylactic administration for its ability to delay disease onset. Female mice (n=34) were dosed with 50 mg/kg twice a day by subcutaneous injections for 14 consecutive weeks starting at age 10 weeks. […] Moreover, the number of mice developing diarrhea was also lower among compound-treated mice (17%), compared to mice receiving vehicle alone (24%)(FIG. 1).
For `CC(C)(C)c1ccc(S(=O)(=O)Nc2ccc(Cl)cc2C(=O)c2ccncc2)cc1`, the IBD-associated growth retardation entry was “prevented IBD-associated growth retardation”.

Staying with this experiment, now noted: female mice, 50 mg/kg twice a day subcutaneous, 14 weeks from age 10 weeks; vehicle 24%.
As for `CC(C)(C)c1ccc(S(=O)(=O)Nc2ccc(Cl)cc2C(=O)c2ccncc2)cc1`, the “number of mice developing diarrhea” value worked out at 17%.

Usually IC50 stands for the concentration at which inhibition is half-maximal.
